Experiment [1] has as its system Rattus norvegicus. As to the kind of experiment: Serum creatinine concentration measured after intraperitoneal administration of 10 mg/kg of compound to rats(vehicle 2.89+/-0.30). Format: functional.
Experiment [2] has as its system Rattus norvegicus. As to the kind of experiment: Ratio of urinary excretion value (urinary volume) in treated rats to that in control rats, at a peroral dose of 12.5 mg/Kg. The format is functional, Urine.
The test system of experiment [3] is Rattus norvegicus. As to the kind of experiment: Ratio of sodium ion/potassium ion concentration in treated rats to that in control rats, at a peroral dose of 12.5 mg/Kg. The format is functional.
Experiment [4] deals with Rattus norvegicus. As to the kind of experiment: Ratio of urinary excretion value (Na+ concentration) in treated rats to that in control rats, at a peroral dose of 12.5 mg/Kg. Format: functional, Urine.
Experiment [5] deals with Rattus norvegicus. In words: Ratio of urinary excretion value (Na+ concentration) in treated rats to that in control rats, at a peroral dose of 6.25 mg/Kg. Format: functional, Urine.
Experiment [6] has as its system Rattus norvegicus. In words: Effect on urinary excretion potassium and sodium after oral administration of 12.5 mg/kg to rats(potassium and sodium excretion in control rat is 0.175+/-0.014). The format is functional, Urine.
For experiment [7], the system named is Rattus norvegicus. In words: Percent inhibition of serum creatinine by the compound given as ratio of Cr value in treated to vehicle treated ones after intraperitoneal administration of 10 mg/kg of compound to rats(vehicle 2.89+/-0.30). Format: functional. Conditions: ip.
For experiment [8], the system named is Rattus norvegicus. As to the kind of experiment: Urea nitrogen concentration measured after intraperitoneal administration of 10 mg/kg of compound to rats(vehicle 93.6+/-8.6). The format is functional.
In experiment [9] the test system is Rattus norvegicus. As to the kind of experiment: Oral diuretic activity was measured after oral administration of 12.5 mg/kg to rats(control volume is 0.94+/-0.03). The format is functional, Urine.
The subject of experiment [10] is Rattus norvegicus. As to the kind of experiment: Percent inhibition of Urea nitrogen by the compound given as ratio of UN value in treated to vehicle treated ones after intraperitoneal administration of 10 mg/kg of compound to rats(vehicle 93.6+/-8.6). Format: functional. Conditions: ip.
In experiment [11] the test system is Rattus norvegicus. As to the kind of experiment: Ratio of urinary excretion value (urinary volume) in treated rats to that in control rats, at a peroral dose of 6.25 mg/Kg. Format: functional, Urine.
The target in experiment [12] is T1, Adenosine A2 receptor (Rattus norvegicus, UniProt P29276+P30543).
Description: Binding affinity towards adenosine A2 receptor in rat striatal membranes using N-[3H]-ethyladenosin-5''-uronamide as radioligand
The target in experiment [13] is T1, Adenosine A2 receptor. This is another data set of the same source.
The subject of experiment [14] is Rattus norvegicus. In words: Serum creatinine concentration measured after intraperitoneal administration of 1 mg/kg of compound to rats(vehicle 3.62+/-0.52). The format is functional.
For experiment [15], the system named is Rattus norvegicus. As to the kind of experiment: Serum creatinine concentration measured after intraperitoneal administration of 10 mg/kg of compound to rats(vehicle 3.93+/-0.45). The format is functional.
Experiment [16] deals with Rattus norvegicus. As to the kind of experiment: Effect on urinary excretion potassium and sodium after oral administration of 0.4 mg/kg to rats(potassium and sodium excretion in control rat is 0.191+/-0.020). The format is functional, Urine.
Experiment [17] relates to Rattus norvegicus. As to the kind of experiment: Percent inhibition of serum creatinine by the compound given as ratio of Cr value in treated to vehicle treated ones after intraperitoneal administration of 10 mg/kg of compound to rats(vehicle 3.93+/-0.45). The format is functional. Conditions: ip.
The subject of experiment [18] is Rattus norvegicus. In words: Ratio of urinary excretion value (urinary volume) in treated rats to that in control rats, at a peroral dose of 0.4 mg/Kg. Format: functional, Urine.
For experiment [19], the system named is Rattus norvegicus. As to the kind of experiment: Ratio of urinary excretion value (urinary volume) in treated rats to that in control rats, at a peroral dose of 1.6 mg/Kg. Format: functional, Urine.
The test system of experiment [20] is Rattus norvegicus. As to the kind of experiment: Percent inhibition of serum creatinine by the compound given as ratio of Cr value in treated to vehicle treated ones after intraperitoneal administration of 1 mg/kg of compound to rats(vehicle 3.62+/-0.52). The conditions noted are these: ip. The format is functional.
The subject of experiment [21] is Rattus norvegicus. As to the kind of experiment: Ratio of sodium ion/potassium ion concentration in treated rats to that in control rats, at a peroral dose of 0.4 mg/Kg. The format is functional.
Experiment [22] relates to Rattus norvegicus. As to the kind of experiment: Ratio of sodium ion/potassium ion concentration in treated rats to that in control rats, at a peroral dose of 1.6 mg/Kg. The format is functional.
For experiment [23], the system named is Rattus norvegicus. As to the kind of experiment: Ratio of urinary excretion value (Na+ concentration) in treated rats to that in control rats, at a peroral dose of 0.4 mg/Kg. Format: functional, Urine.
Experiment [24] relates to Rattus norvegicus. In words: Ratio of urinary excretion value (Na+ concentration) in treated rats to that in control rats, at a peroral dose of 1.6 mg/Kg. Format: functional, Urine.
The test system of experiment [25] is Rattus norvegicus. As to the kind of experiment: Urea nitrogen concentration measured after intraperitoneal administration of 1 mg/kg of compound to rats(vehicle 105.2+/-14.9). The format is functional.
Experiment [26] has as its system Rattus norvegicus. In words: Oral diuretic activity was measured after oral administration of 0.4 mg/kg to rats(control volume is 1.15+/-0.17). Format: functional, Urine.
In experiment [27] the test system is Rattus norvegicus. In words: Oral diuretic activity was measured after oral administration of 1.6 mg/kg to rats(control volume is 0.96+/-0.09). The format is functional, Urine.
In experiment [28] the test system is Rattus norvegicus. In words: Urea nitrogen concentration measured after intraperitoneal administration of 10 mg/kg of compound to rats(vehicle 129.1+/-14.5). The format is functional.
Experiment [29] has as its system Rattus norvegicus. As to the kind of experiment: Percent inhibition of Urea nitrogen by the compound given as ratio of UN value in treated to vehicle treated ones after intraperitoneal administration of 1 mg/kg of compound to rats(vehicle 105.2+/-14.9). The format is functional. Conditions: ip.
Experiment [30] concerns Rattus norvegicus. In words: Percent inhibition of Urea nitrogen by the compound given as ratio of UN value in treated to vehicle treated ones after intraperitoneal administration of 10 mg/kg of compound to rats(vehicle 129.1+/-14.5). Conditions: ip. Format: functional.
Experiment [31] relates to Rattus norvegicus. As to the kind of experiment: Effect on urinary excretion potassium and sodium after oral administration of 1.6 mg/kg to rats(potassium and sodium excretion in control rat is 0.147+/-0.015). The format is functional, Urine.
Experiment [32] concerns Rattus norvegicus. In words: Serum creatinine concentration measured after intraperitoneal administration of 10 mg/kg of compound to rats(vehicle 4.98+/-0.08). Format: functional.
Experiment [33] has as its system Rattus norvegicus. As to the kind of experiment: Oral diuretic activity was measured after oral administration of 25 mg/kg to rats(control volume is 0.89+/-0.06). Format: functional, Urine.
For experiment [34], the system named is Rattus norvegicus. As to the kind of experiment: Percent inhibition of serum creatinine by the compound given as ratio of Cr value in treated to vehicle treated ones after intraperitoneal administration of 10 mg/kg of compound to rats(vehicle 4.98+/-0.08). The format is functional. The conditions noted are these: ip.
Experiment [35] relates to Rattus norvegicus. As to the kind of experiment: Ratio of urinary excretion value (urinary volume) in treated rats to that in control rats, at a peroral dose of 25 mg/Kg. The format is functional, Urine.
Experiment [36] deals with Rattus norvegicus. As to the kind of experiment: Ratio of sodium ion/potassium ion concentration in treated rats to that in control rats, at a peroral dose of 25 mg/Kg. The format is functional.
For experiment [37], the system named is Rattus norvegicus. As to the kind of experiment: Ratio of urinary excretion value (Na+ concentration) in treated rats to that in control rats, at a peroral dose of 25 mg/Kg. Format: functional, Urine.
The subject of experiment [38] is Rattus norvegicus. In words: Effect on urinary excretion potassium and sodium after oral administration of 25 mg/kg to rats(potassium and sodium excretion in control rat is […]+/-[…]). The format is functional, Urine.
The test system of experiment [39] is Rattus norvegicus. In words: Urea nitrogen concentration measured after intraperitoneal administration of 10 mg/kg of compound to rats(vehicle 150.7+/-3.4). The format is functional.
The subject of experiment [40] is Rattus norvegicus. In words: Percent inhibition of Urea nitrogen by the compound given as ratio of UN value in treated to vehicle treated ones after intraperitoneal administration of 10 mg/kg of compound to rats(vehicle 150.7+/-3.4). The conditions noted are these: ip. Format: functional.
For the next experiment, the target named is T2, Adenosine receptor A1 (Cavia porcellus, UniProt P47745).
T2 sequence (P47745 whole entry): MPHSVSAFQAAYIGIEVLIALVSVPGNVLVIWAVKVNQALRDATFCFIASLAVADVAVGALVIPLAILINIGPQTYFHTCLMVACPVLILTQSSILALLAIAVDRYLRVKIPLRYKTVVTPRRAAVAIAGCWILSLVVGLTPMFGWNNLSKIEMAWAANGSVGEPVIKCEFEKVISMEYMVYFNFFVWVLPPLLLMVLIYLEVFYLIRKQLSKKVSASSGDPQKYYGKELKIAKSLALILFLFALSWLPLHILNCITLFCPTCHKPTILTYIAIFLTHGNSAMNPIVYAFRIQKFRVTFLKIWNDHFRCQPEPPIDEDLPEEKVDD

Molecules are shown by their SMILES. A value given as a limit tells only on which side of the number the result lay.

Description for Adenosine receptor A1: Binding affinity against adenosine A1 receptor in guinea pig forebrain membranes using N6-[3H]cyclohexyladenosine as radioligand

The term inhibition in vivo denotes the change of the read-out against control, counted positive when it falls. One may read the Ki as a measure of affinity in units of concentration, obtained from inhibition or displacement. Higher therefore signals lower affinity. Regarding `CCCn1c(=O)c2nc(-c3ccc(S(=O)(=O)N(C)CCN(C)C)cc3)[nH]c2n(CCC)c1=O`, in the experiment on Rattus norvegicus [1], the Cr came out at 2.31 mg/dL. Also, the T/C in the experiment with Rattus norvegicus [2] is given as 1.64; in the experiment on Rattus norvegicus [4] it was 1.78; with Rattus norvegicus [5] it was 1.06; in the experiment with Rattus norvegicus [11], 1.17. The “Na+/K+” value in the experiment with Rattus norvegicus [3] came to 1.56. The compound further had a Na in the experiment on Rattus norvegicus [6] of 0.21 m equiv 6hr-1 100g-1. The results for the inhibition in vivo at 10 mg/kg in the experiment with Rattus norvegicus [7] and with Rattus norvegicus [10] were 20% and 33%, respectively. Further, in the experiment on Rattus norvegicus [8], the UN came to 62.6 mg/dL. The compound also yielded a Urine volume with Rattus norvegicus [9] of 1.54 ml 6hr-1 100g-1. The Ki came to 15.5 nM on Adenosine A2 receptor [12] and 26 nM at Adenosine A2 receptor [13].
Regarding `CCCCn1c(=O)c2nc(C(C3CC3)C3CC3)[nH]c2n(CCCC)c1=O`, the Cr with Rattus norvegicus [14] is 3.63 mg/dL; with Rattus norvegicus [15] it was 2.3 mg/dL. Further, the Na came to 0.276 m equiv 6hr-1 100g-1 in the experiment with Rattus norvegicus [16] and 0.282 m equiv 6hr-1 100g-1 in the experiment with Rattus norvegicus [31]. The inhibition in vivo at 10 mg/kg with Rattus norvegicus [17] turned out to be 41%; in the experiment with Rattus norvegicus [30], 37%. Further, the T/C in the experiment on Rattus norvegicus [18] came to 1.08; with Rattus norvegicus [19], 1.66; with Rattus norvegicus [23] it was 1.44; with Rattus norvegicus [24], 1.91. Further, the inhibition in vivo at 1 mg/kg in the experiment on Rattus norvegicus [20] came out at 0%; in the experiment on Rattus norvegicus [29], 4%. The “Na+/K+” value in the experiment on Rattus norvegicus [21] was found to be 1.45; with Rattus norvegicus [22], 1.66. Also, the UN in the experiment on Rattus norvegicus [25] was 101.1 mg/dL; in the experiment on Rattus norvegicus [28], 81.1 mg/dL. The figures for the Urine volume in the experiment with Rattus norvegicus [26] and in the experiment on Rattus norvegicus [27] were 1.24 ml 6hr-1 100g-1 and 1.59 ml 6hr-1 100g-1, respectively. Affinity on Adenosine A2 receptor [13] was put at a Ki of 440 nM.
In turn, `CCCn1c(=O)c2c(nc(C(C3CC3)C3CC3)n2CC(=O)O)n(CCC)c1=O` registered a Cr in the experiment on Rattus norvegicus [32] of 4.79 mg/dL. The same compound showed a Urine volume in the experiment on Rattus norvegicus [33] of 1.02 ml 6hr-1 100g-1. The inhibition in vivo at 10 mg/kg in the experiment with Rattus norvegicus [34] is 4%; in the experiment on Rattus norvegicus [40], 3%. Besides, the T/C came out at 1.15 in the experiment with Rattus norvegicus [35] and 1.14 in the experiment on Rattus norvegicus [37]. Also, the “Na+/K+” value with Rattus norvegicus [36] is on record as 0.95. The same compound returned a Na in the experiment on Rattus norvegicus [38] of 0.185 m equiv 6hr-1 100g-1. The compound further displayed a UN in the experiment on Rattus norvegicus [39] of 145.5 mg/dL. Moreover, the results for the Ki on Adenosine receptor A1 and at Adenosine A2 receptor [13] were 6900 nM and more than 100000 nM, respectively.
For the compound `Nc1nc2ccc(Cl)cc2c2nc(-c3ccco3)nn12` [CGS-15943], the T/C with Rattus norvegicus [35] is 1.02; in the experiment with Rattus norvegicus [37], 1.46. Also, the “Na+/K+” value in the experiment on Rattus norvegicus [36] is recorded as 1.07. Also, the Ki at Adenosine A2 receptor [12] is recorded as 3.3 nM; on Adenosine A2 receptor [13] it was 0.73 nM.

The values are drawn from ChEMBL document CHEMBL1125524, “Adenosine A1 antagonists. 2. Structure-activity relationships on diuretic activities and protective effects against acute renal failure” (J Med Chem, 1992).
